Measurements from patent US11331299B2, “Medicinal use of serrulatane diterpenes” (The University of Sydney, priority 2016, dated 2022).

Legend:
JMJD1A (h) = target: T1, JMJD1A (h) (Homo sapiens, UniProt Q9Y4C1); experiment: Epigenetic enzyme assay, Demethylases (KDMs); type: biochemical; conditions: for inhibition at 10 µM: read-out: % Inhibition of Control Values
T1 sequence (Q9Y4C1 1-1321): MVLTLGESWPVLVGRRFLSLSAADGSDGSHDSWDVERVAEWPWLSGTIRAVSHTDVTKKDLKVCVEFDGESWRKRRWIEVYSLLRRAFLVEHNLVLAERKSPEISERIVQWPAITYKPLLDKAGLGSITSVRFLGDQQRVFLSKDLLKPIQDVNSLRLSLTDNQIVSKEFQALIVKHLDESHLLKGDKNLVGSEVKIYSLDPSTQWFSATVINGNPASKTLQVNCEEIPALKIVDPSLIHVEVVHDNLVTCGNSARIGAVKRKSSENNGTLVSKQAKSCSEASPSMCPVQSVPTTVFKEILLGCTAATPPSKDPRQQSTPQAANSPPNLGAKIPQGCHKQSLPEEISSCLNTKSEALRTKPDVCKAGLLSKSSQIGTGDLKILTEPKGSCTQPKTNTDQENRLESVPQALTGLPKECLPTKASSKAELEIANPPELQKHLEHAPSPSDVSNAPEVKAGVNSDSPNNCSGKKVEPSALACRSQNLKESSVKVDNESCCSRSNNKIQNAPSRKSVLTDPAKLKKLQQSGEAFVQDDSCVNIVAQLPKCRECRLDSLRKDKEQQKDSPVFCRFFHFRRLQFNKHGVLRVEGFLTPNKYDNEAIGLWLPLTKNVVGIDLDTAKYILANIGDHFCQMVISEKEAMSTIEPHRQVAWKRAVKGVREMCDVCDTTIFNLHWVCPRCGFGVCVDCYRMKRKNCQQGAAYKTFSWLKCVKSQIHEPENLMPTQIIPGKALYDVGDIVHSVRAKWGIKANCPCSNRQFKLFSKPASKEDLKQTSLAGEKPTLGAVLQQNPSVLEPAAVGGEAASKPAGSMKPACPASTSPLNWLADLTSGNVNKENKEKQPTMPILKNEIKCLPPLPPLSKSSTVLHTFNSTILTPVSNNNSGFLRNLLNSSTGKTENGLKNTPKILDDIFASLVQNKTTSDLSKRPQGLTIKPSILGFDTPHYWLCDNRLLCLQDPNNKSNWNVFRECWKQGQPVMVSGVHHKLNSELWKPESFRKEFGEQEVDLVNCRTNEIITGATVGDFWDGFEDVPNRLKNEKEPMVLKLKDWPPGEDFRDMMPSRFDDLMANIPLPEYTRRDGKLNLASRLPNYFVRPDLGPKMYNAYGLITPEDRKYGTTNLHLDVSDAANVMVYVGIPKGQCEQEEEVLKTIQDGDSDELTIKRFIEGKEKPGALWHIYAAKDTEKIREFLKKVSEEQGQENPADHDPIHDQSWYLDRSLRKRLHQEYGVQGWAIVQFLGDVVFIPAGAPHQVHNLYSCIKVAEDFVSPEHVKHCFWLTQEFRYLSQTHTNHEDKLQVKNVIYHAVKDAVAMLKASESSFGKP

HDAC6 (h) = target: T2, HDAC6 (h) (Homo sapiens, UniProt Q9UBN7); experiment: Epigenetic enzyme assay, Histone deacetylase (HDACs); type: biochemical; conditions: read-out: % Inhibition of Control Values
T2 sequence (Q9UBN7 1-1215): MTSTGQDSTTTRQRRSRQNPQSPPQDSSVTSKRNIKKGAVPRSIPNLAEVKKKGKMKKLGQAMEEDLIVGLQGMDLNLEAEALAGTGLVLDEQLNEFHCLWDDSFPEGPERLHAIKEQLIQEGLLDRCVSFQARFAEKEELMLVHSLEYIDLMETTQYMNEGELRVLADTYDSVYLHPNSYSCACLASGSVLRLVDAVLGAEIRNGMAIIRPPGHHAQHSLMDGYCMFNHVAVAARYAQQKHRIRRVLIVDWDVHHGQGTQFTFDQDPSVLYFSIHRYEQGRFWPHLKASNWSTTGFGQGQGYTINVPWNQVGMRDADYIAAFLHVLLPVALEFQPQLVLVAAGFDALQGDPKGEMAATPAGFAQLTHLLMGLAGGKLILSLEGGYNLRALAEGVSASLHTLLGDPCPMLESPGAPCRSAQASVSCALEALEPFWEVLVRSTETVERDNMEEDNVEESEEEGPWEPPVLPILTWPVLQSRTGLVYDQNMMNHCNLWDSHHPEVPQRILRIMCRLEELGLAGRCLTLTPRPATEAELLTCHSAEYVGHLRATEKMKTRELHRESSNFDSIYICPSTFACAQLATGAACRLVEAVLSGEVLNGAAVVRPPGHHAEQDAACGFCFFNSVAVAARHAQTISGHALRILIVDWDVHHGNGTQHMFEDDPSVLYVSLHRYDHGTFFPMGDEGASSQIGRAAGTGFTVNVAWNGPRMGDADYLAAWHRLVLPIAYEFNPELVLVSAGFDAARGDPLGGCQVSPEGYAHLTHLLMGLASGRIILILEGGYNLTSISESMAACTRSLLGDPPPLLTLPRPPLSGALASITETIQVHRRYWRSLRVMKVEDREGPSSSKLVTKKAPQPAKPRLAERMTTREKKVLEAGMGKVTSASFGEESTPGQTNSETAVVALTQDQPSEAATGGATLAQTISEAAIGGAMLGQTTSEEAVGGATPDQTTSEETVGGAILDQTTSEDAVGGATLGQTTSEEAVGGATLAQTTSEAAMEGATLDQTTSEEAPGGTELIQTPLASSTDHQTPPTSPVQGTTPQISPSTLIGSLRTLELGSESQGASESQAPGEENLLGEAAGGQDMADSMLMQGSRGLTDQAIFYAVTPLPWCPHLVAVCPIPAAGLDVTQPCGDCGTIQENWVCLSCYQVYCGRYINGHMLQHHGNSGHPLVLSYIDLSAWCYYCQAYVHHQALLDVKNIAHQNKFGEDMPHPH

[1] = target: Guanidinoacetate N-methyltransferase (h) (Homo sapiens, UniProt Q14353); experiment: Epigenetic enzyme assay, Small molecule methyltransferases; type: biochemical; conditions: read-out: % Inhibition of Control Values
Steroid 5alpha-Reductase = experiment: Steroid 5α-Reductase; type: biochemical, Wistar Rat; conditions: 10 μM; assay year 2015
Method: The in vitro pharmacological studies were conducted by Eurofins PanLab (Taiwan) using the parameters shown in Table 13 with respect to appropriate literature references.

[2] = target: CYP2D6 (Dextromethorphan Substrate) (Homo sapiens, UniProt P10635); experiment: Cytochrome P450 Inhibition (CYP panel); conditions: CYP2D6 (dextromethorphan sub.); Human liver microsomes; 1 μM
Chain of CYP2D6 (Dextromethorphan Substrate) (P10635 whole entry): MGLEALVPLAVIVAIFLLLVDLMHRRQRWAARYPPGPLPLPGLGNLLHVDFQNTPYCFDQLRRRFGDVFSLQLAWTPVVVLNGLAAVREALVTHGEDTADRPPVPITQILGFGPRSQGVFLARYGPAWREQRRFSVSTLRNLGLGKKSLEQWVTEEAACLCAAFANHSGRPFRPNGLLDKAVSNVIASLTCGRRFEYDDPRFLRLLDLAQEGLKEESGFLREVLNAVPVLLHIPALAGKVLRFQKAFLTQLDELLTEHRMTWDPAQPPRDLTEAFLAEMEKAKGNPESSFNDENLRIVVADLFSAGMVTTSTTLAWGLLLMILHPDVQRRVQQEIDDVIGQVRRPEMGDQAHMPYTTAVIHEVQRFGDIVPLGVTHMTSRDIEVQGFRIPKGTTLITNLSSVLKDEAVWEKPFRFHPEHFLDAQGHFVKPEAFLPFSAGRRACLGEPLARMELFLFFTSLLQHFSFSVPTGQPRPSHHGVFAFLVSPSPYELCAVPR

For `CC(C)=CCC[C@H](CO)[C@@H]1CC[C@@H](C)c2c1cc(C)c(O)c2O` [Compound 1, 7,8,18-trihydroxyserrulat-14-ene], the “% Inhibition of Control Values” (JMJD1A (h); 10 μM) was “significant inhibitory activity”, the inhibition at 10 µM (JMJD1A (h); 10 μM) was 80% and the IC50 (JMJD1A (h); Table 11, inhibition/concentration-response curve) was 4.5 µM. The inhibition at 10 µM (HDAC6 (h)) was 12%, the inhibition at 10 µM [1] was 8% and the “% Control Response” value (Steroid 5alpha-Reductase) was 2%. For the same compound, the “% Inhibition of Control Values” [2] was 13%.
`CC(C)=CCC[C@@H]1C(O)Oc2c(C)cc(O)c3c2[C@H]1CC[C@H]3C` (some centres unmarked) [Compound 2, 5,18-epoxyserrulat-14-en-8,18-diol] gave an inhibition at 10 µM (JMJD1A (h); 10 μM) of 37%, an inhibition at 10 µM (HDAC6 (h)) of 2% and an inhibition at 10 µM [1] of -1%. For the same compound, the “% Control Response” value (Steroid 5alpha-Reductase) was −6% and the “% Inhibition of Control Values” [2] was 18%.
With `CC(C)=CCC[C@@H]1COc2c(C)cc(O)c3c2[C@H]1CC[C@H]3C` [Compound 3, 5,18-epoxy-8-hydroxyserrulat-14-ene] the inhibition at 10 µM (JMJD1A (h); 10 μM) was -1%, the inhibition at 10 µM (HDAC6 (h)) was -18% and the inhibition at 10 µM [1] was -1%. For the same compound, the “% Control Response” value (Steroid 5alpha-Reductase) was 3%.
For `CC(C)=CCC[C@H](C)[C@@H]1CC[C@@H](C)c2c1cc(C)c(O)c2O` [Compound 4, 7,8-dihydroxyserrulat-14-ene], the “% Inhibition of Control Values” [2] was 21%.
